# Experimental data taken from ChEMBL document CHEMBL1201862, “PubChem BioAssay data set” (2004).
# Calls of active or inactive are those of the source.
# Legend:
# Caspase-6 = Caspase-6 (Homo sapiens, UniProt P55212); assay: human caspase-6 inhibitors, dose response, biochemical, VEID-R110 fluorescence, cherry-pick (AID 720632)
# [1] = biological target: NAD-dependent protein deacylase sirtuin-5, mitochondrial (Homo sapiens, UniProt Q9NXA8); assay: SIRT5 desuccinylase inhibitors, dose response, biochemical, fluorescence imaging, cherry-pick, set 5 (AID 720591);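 also: desuccinylation of succinyl peptide AMC substrate read as fluorescence after trypsin release; potency of inhibitors that lower fluorescence and may act on trypsin instead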
# Sequence of NAD-dependent protein deacylase sirtuin-5, mitochondrial (Q9NXA8 whole entry): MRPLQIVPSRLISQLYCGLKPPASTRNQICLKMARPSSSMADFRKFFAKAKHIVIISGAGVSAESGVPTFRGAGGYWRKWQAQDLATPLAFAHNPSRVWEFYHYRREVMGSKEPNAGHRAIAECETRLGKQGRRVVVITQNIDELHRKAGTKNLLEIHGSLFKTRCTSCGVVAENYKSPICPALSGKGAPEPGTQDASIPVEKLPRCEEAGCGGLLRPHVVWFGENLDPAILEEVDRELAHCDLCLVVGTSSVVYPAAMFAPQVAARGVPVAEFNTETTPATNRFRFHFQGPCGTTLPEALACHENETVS
# [2] = HEK293 cell cytotoxicity, dose response, cytotoxicity control, cherry-picks, set 5 (AID 1053117); format: functional, cell-based
# [3] = inhibitors of fibronectin matrix deposition, dose response, AH1F cells, Alexa488-FN fluorescence, cherry-picks (AID 1035475); format: functional, cell-based
# [4] = HepG2 cell cytotoxicity, dose response, cytotoxicity control, cherry-picks, set 5 (AID 1053118); format: functional, cell-based
# [5] = cytotoxicity in HepG2 cells, dose response, cytotoxicity control, cell-based, plate reader, dry powder (AID 651947); format: functional
# [6] = A549 lung cell cytotoxicity, dose response, cytotoxicity control, CellTiter-Glo luminescence, dry powder samples (AID 720585); format: functional
# fMet-Leu-Phe receptor = fMet-Leu-Phe receptor (Homo sapiens, UniProt P21462); assay: FPR ligands, dose response (AID 519); format: functional
# Sequence of fMet-Leu-Phe receptor (P21462 whole entry): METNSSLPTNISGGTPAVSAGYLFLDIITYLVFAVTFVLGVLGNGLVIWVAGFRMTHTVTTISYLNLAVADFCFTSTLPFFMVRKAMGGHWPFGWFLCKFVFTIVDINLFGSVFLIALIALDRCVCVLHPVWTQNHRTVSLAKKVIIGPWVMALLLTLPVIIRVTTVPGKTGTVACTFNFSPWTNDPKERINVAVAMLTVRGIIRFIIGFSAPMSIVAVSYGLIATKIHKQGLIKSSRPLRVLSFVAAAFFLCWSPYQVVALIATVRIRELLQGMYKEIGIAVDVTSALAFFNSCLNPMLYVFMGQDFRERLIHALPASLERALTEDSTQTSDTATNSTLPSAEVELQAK
# [7] = cytotoxicity in OV-90 ovarian cancer cells, dose response, PAX8 inhibitor project, cell-based, plate reader, dry powder, SA8 (AID 743149); format: functional
# [8] = NIH:OVCAR-3 ovarian cancer cell cytotoxicity, dose response, PAX8 inhibitor project, plate reader, dry powder samples (AID 743044); format: functional, cell-based
# [9] = IOSE-T80 ovarian epithelial cell cytotoxicity, dose response, cytotoxicity control for PAX8 inhibitor project, plate reader, dry powder samples (AID 743045); format: functional, cell-based
# [10] = cytotoxicity in OVCAR4 cells, dose response, cytotoxicity control for PAX8 inhibitor project, cell-based, plate reader, dry powder, SA11 (AID 743150); format: functional; conditions: OVCAR-4
# [11] = cytotoxicity dependent on PAX8, dose response, cell-based, plate reader, dry powder (AID 743049); format: functional
# [12] = cytotoxicity in COV362 ovarian cancer cells, dose response, cytotoxicity control for PAX8 inhibitor project, cell-based, plate reader, dry powder, SA12 (AID 743144); format: functional
# Paired box protein Pax-8 = Paired box protein Pax-8 (Homo sapiens, UniProt Q06710); assay: inhibitors of PAX8-driven TPO luciferase reporter, dose response, RMG-I cells, cherry-pick (AID 687027); format: functional, cell-based;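 also: luciferase reporter driven by Pax8 target thyroperoxidase promoter measured by SteadyGlo luminescence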
# Sequence of Paired box protein Pax-8 (Q06710 whole entry): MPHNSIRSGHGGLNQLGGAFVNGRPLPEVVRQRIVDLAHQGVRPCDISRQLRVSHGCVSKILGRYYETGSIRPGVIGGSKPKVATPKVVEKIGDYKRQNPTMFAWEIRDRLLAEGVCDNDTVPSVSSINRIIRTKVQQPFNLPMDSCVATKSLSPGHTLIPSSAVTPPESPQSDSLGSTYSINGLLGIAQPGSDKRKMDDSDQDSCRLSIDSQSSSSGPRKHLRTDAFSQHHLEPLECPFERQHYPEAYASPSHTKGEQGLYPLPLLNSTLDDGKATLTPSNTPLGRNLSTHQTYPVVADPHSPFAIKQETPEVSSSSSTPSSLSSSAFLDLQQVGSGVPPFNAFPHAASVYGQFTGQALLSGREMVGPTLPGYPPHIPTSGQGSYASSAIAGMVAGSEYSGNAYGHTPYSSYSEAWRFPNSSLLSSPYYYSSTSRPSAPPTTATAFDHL
# [13] = cytotoxicity in COV434 cells, dose response, cytotoxicity control for PAX8 inhibitor project, cell-based, plate reader, dry powder, SA7 (AID 743145); format: functional
# [14] = PAX5 activity inhibitors, dose response, selectivity assay for PAX8 inhibitor project, cell-based, plate reader, dry powder samples (AID 743047); format: functional;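 also: HEK293 cells carrying a Pax5 driven CD19 promoter luciferase reporter; potency of inhibitors that lower reporter luminescence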
# [15] = IGROV1 ovarian cancer cell cytotoxicity, dose response, PAX8 inhibitor project, plate reader, dry powder samples (AID 743043); format: functional, cell-based; conditions: IGROV-1
# [16] = ADAM10 protease inhibitors, dose response, selectivity assay for ADAM17 exosite inhibitor project, biochemical, FRET peptide substrate, recombinant human ADAM10 (AID 743259);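 also: ADAM10 enzyme cleaving a FRET peptide substrate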
# [17] = biological target: T1, Calpain-2 catalytic subunit (Sus scrofa, UniProt P43367); assay: pig calpain II inhibitor potency, dose response, biochemical, fluorogenic peptide substrate (AID 1420); format: functional
# T1 sequence (P43367 whole entry): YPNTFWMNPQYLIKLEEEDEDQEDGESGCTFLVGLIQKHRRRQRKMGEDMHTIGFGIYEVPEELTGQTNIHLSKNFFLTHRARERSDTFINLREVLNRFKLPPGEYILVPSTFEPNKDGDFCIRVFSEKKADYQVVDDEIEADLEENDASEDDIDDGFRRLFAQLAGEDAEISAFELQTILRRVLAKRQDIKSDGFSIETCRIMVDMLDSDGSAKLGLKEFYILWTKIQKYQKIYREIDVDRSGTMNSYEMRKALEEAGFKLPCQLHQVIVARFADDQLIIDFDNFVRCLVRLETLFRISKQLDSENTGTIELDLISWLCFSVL
# [18] = biological target: Disintegrin and metalloproteinase domain-containing protein 17 (Homo sapiens, UniProt P78536); assay: exosite inhibitors of ADAM17, dose response, biochemical (AID 743260)
# Sequence of Disintegrin and metalloproteinase domain-containing protein 17 (P78536 whole entry, the tested form may be a part): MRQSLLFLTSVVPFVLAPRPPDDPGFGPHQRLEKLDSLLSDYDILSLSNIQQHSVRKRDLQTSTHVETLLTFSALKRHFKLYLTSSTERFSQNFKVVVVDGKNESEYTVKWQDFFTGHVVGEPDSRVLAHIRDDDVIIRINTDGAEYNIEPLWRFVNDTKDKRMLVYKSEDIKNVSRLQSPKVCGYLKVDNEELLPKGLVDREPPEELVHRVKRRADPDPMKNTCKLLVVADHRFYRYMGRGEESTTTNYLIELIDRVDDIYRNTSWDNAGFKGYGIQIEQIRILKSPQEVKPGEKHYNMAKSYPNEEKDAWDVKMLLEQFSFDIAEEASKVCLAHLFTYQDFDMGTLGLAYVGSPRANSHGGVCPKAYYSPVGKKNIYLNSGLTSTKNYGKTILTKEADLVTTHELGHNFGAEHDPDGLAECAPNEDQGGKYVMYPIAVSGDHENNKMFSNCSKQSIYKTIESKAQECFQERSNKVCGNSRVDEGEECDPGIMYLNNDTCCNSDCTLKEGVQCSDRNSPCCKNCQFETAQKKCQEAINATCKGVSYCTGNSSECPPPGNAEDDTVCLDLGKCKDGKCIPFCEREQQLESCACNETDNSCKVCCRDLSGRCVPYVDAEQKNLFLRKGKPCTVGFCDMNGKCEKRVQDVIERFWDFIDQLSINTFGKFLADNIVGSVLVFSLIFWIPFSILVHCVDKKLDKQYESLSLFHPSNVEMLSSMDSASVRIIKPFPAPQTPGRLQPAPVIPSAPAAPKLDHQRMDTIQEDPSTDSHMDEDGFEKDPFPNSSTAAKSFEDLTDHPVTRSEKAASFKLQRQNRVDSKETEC
# [19] = biological target: T2, Methionyl-tRNA synthetase, putative (Trypanosoma brucei brucei, UniProt Q38C91); format: functional, Trypanosoma brucei brucei strain 927/4 GUTat10.1
# T2 sequence (Q38C91 whole entry): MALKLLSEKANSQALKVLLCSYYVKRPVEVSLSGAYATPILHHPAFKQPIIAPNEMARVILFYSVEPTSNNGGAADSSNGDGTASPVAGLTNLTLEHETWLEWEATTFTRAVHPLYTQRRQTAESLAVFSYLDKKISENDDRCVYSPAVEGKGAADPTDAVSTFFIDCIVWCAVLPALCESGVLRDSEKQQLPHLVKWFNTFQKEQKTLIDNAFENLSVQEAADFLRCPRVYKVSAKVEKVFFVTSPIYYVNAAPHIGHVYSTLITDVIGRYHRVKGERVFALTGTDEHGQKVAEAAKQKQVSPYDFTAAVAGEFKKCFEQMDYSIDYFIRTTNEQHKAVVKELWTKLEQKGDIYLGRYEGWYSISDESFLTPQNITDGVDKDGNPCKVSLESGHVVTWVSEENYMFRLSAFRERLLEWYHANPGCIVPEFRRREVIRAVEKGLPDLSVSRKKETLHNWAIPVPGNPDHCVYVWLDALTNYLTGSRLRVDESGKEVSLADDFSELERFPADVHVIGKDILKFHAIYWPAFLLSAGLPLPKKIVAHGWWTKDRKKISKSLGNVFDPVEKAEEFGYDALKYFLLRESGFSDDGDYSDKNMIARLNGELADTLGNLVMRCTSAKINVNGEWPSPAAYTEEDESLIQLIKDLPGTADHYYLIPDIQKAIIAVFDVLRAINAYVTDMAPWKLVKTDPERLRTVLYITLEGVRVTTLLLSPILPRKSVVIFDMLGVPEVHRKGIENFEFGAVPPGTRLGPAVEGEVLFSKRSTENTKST
# [20] = Late stage counterscreen for inhibitors of Trypanosoma brucei methionyl tRNA synthetase (MetRS): Luminescence-based cell-based high throughput dose response assay to identify compounds that are cytotoxic to Jurkat human T lymphocyte cells.; format: functional
# [21] = Counterscreen for inhibitors of Trypanosoma brucei methionyl tRNA synthetase (MetRS): Luminescence-based cell-based high throughput dose response assay to identify compounds that are cytotoxic to Jurkat human T lymphocyte cells.; format: functional
# [22] = biological target: T2, Methionyl-tRNA synthetase, putative; format: functional, Trypanosoma brucei brucei strain 927/4 GUTat10.1; remark: listed apart in the source
# Sequence of Caspase-6 (P55212 24-179 limits assumed): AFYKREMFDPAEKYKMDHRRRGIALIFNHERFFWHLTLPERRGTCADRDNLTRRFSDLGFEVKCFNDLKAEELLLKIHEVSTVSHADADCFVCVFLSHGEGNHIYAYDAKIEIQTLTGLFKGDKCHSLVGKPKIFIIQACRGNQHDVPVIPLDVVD
# Sequence of Caspase-6 (P55212 194-293 limits assumed): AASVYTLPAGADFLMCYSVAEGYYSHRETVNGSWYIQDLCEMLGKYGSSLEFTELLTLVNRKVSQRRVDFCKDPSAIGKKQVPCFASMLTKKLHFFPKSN
compound,measurement,setting,value
O=C(Nc1sc2c(c1C(=O)O)CCC2)C(=O)N1CCOCC1,AC50,Caspase-6,30.7 µM (active)
COc1ccc(OC)c(NC(=O)C2CCN(C(=O)c3cccs3)CC2)c1,AC50,[1],26.6 µM (active)
O=S(=O)(c1cccc(F)c1)N1CC[C@@H]2[C@@H](CO)Nc3ccc(-c4cccc(F)c4)cc3[C@@H]21,AC50,[2],22.6 µM (active)
same,AC50,[3],6.54 µM (active)
same,AC50,[4],27.3 µM (active)
Cc1ccccc1CSc1nnc(-c2ccccc2)o1,AC50,[5],0.308 µM (active)
Cc1ccc(/C=C(\CCCC(=O)O)c2nc3ccccc3s2)cc1[N+](=O)[O-],AbsAC50_uM,[6],140.77 µM
COc1ccc2c(=O)c(-c3cnn(-c4ccccc4)c3)c(C)oc2c1,Ki,fMet-Leu-Phe receptor,> 66.7 µM (inactive)
NS(=O)(=O)c1ccc(CCN2C(=O)/C(=C\c3ccc(Cl)cc3)SC2=S)cc1,AC50,[7],26.2 µM (active)
same,AC50,[8],22.3 µM (active)
same,AC50,[9],79.8 µM (active)
same,AC50,[10],48.2 µM (active)
same,AC50,[11],15.5 µM (active)
same,AC50,[12],24.9 µM (active)
same,AC50,Paired box protein Pax-8,3.81 µM (active)
same,AC50,[13],29.8 µM (active)
same,AC50,[14],67.7 µM (active)
same,AC50,[15],30.4 µM (active)
Nc1cc(S(=O)(=O)N2CCCCC2)ccc1Oc1ccc(Cl)cc1,IC50,[16],> 69.5 µM (inactive)
same,IC50,[17],5.69 µM (not active)
same,IC50,[18],> 69.5 µM (inactive)
CC(C)OCCCN1CC(=O)N2C(c3cccc([N+](=O)[O-])c3)c3[nH]c4ccccc4c3C[C@H]2C1=O (stereo not given in full),IC50,[19],2.17 µM (active)
same,IC50,[20],> 83.3 µM (inactive)
same,IC50,[21],73.1 µM (inactive)
same,IC50,[22],0.979 µM (active)
